The source of these data is patent US20230139171A1 (SITA Information Networking Computing UK Limited, priority 2019, published 2023).

Common to all, as to assay type: cell-based
The target in one test is T1, human TLR8 (Homo sapiens, UniProt Q9NR97).
T1 construct: host or cells: HEK-Blue cells
T1 sequence (Q9NR97 27-1041): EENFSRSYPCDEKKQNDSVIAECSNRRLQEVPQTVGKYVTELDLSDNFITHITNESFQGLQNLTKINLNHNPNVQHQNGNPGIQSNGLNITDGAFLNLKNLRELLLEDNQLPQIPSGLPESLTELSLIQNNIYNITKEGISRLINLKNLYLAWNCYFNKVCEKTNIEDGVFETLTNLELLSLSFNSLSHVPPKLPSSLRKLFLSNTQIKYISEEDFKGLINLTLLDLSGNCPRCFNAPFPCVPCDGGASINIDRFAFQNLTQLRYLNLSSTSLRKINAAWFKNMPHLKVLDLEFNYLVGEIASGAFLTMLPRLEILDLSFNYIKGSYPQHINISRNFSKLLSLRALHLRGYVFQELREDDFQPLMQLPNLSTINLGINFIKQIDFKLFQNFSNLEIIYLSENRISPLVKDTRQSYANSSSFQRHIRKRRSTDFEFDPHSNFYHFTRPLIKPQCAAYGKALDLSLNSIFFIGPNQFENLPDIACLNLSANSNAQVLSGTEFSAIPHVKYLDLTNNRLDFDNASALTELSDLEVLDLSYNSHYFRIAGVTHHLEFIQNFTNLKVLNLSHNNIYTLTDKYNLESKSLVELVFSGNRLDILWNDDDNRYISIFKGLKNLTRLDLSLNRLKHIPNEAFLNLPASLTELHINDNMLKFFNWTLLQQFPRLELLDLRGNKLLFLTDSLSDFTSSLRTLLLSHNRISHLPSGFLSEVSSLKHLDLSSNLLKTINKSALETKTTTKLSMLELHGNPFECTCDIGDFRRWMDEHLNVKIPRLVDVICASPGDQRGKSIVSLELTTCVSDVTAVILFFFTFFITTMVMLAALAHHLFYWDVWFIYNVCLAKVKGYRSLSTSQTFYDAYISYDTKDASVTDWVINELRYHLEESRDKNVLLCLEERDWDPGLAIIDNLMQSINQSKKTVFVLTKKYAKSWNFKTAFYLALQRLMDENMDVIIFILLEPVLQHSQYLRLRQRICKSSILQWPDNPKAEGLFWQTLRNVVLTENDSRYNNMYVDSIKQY
Description: TLR8 inhibition reporter assay (HEK-Blue cells, SEAP reporter, R848 stimulation). To be noted: HEK-Blue cells overexpressing human TLR8, SEAP reporter, R848 15.9 μM; read-out: TLR8 IC50. The gist of the method:
(§1)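 HEK-Blue cells overexpressing human TLR7, TLR8 or TLR9 carry a SEAP reporter driven by NF-κB/AP-1 sites. Compounds (0.05 nM–50 μM) were preincubated 30 min at room temperature, then cells were stimulated with gardiquimod 7.5 μM (TLR7), R848 15.9 μM (TLR8) or ODN2006 5 nM (TLR9) for 22 h at 37 °C.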
On the technique in general: Reporter assays use an easily measured gene product as a stand-in for the process of interest.

The target in the next test is T2, human TLR7 (Homo sapiens, UniProt Q9NYK1).
T2 construct: host or cells: HEK-Blue cells
T2 sequence (Q9NYK1 27-1049): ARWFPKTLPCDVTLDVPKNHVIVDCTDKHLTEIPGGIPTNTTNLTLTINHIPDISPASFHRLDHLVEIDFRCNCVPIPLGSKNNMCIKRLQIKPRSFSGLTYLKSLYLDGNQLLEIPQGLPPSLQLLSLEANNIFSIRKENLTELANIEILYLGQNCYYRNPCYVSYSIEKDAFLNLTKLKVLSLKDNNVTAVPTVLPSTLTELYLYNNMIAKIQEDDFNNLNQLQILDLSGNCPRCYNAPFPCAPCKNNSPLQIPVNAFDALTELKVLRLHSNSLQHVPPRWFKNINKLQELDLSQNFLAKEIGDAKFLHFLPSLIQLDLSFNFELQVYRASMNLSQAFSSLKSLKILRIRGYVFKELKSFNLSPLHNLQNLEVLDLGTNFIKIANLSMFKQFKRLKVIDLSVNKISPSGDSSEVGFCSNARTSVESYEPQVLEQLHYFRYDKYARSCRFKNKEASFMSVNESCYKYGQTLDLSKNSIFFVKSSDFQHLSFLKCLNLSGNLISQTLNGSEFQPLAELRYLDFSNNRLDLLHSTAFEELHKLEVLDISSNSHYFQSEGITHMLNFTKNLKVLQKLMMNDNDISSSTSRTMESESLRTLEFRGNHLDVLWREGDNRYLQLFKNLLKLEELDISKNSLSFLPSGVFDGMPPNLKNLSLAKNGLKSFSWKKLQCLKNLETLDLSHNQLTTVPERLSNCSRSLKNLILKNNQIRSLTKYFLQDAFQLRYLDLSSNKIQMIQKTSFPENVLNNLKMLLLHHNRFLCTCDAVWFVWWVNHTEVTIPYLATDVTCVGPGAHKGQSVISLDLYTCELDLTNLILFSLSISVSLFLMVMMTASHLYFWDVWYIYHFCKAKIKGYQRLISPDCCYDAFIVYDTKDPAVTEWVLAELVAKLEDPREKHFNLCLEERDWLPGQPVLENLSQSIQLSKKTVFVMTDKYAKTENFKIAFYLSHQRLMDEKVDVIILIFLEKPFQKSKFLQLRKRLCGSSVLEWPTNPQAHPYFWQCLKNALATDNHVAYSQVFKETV
Description: TLR7 inhibition reporter assay (HEK-Blue cells, SEAP reporter, gardiquimod stimulation). To be noted: HEK-Blue cells overexpressing human TLR7, SEAP reporter, gardiquimod 7.5 μM; read-out: TLR7 IC50. The gist of the method:
as §1

The target of a further test is T3, human TLR9 (Homo sapiens, UniProt Q9NR96).
T3 construct: host or cells: HEK-Blue cells
T3 sequence (Q9NR96 26-1032): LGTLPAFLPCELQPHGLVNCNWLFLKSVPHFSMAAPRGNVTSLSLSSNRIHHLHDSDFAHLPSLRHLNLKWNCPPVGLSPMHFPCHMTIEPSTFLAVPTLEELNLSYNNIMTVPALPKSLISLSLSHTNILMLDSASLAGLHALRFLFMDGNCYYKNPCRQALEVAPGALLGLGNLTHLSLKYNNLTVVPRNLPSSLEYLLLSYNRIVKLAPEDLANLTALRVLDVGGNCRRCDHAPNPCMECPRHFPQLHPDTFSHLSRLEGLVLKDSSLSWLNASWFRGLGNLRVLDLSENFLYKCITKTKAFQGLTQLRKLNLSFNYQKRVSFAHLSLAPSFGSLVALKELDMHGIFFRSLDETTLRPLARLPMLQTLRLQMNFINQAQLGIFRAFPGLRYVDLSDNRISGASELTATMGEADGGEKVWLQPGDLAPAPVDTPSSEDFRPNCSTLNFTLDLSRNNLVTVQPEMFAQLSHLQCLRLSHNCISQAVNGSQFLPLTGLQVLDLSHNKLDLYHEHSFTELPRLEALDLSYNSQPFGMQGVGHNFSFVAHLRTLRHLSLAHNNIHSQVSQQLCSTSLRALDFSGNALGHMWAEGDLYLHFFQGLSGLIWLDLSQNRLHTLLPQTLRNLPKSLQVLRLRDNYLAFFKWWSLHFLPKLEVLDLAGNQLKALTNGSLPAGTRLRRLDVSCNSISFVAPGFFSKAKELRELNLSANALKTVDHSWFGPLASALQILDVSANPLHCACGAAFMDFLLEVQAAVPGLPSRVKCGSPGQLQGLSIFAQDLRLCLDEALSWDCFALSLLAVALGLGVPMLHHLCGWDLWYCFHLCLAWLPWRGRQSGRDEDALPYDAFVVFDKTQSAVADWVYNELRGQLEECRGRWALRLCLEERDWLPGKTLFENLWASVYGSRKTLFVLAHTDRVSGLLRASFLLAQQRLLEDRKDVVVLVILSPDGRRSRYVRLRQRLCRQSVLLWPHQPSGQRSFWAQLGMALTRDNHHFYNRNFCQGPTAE
Description: TLR9 inhibition reporter assay (HEK-Blue cells, SEAP reporter, ODN2006 stimulation). To be noted: HEK-Blue cells overexpressing human TLR9, SEAP reporter, ODN2006 5 nM. The gist of the method:
as §1

One may read the IC50 as the concentration at which inhibition is half-maximal. Regarding `Cc1c(-c2[nH]c3sc(N4CCN(C5CCC5)C[C@H]4C)nc3c2C(C)C)cn2ncnc2c1C` [Example 323], the values for the IC50 at human TLR8, at human TLR7 and against human TLR9 were 3.86 nM, 22.4 nM and more than 50000 nM, respectively.

Regarding `Cc1c(-c2[nH]c3sc(C4CCC(N5CC6(CCOCC6)C5)CC4)nc3c2C(C)C)cn2ncnc2c1C` (single isomer, unassigned) [Example 239, 2-(4-(5-(7,8-dimethyl-[1,2,4]triazolo[1,5-a]pyridin-6-yl)-6-isopropyl-4H-pyrrolo[3,2-d]thiazol-2-yl)cyclohexyl)-7-oxa-2-azaspiro[3.5]nonane], the IC50 on human TLR8 was determined as 0.27 nM; on human TLR7, 1.96 nM; at human TLR9, 9920 nM.

`Cc1cc2ncnn2cc1-c1[nH]c2sc(C3CCC(N4CCNC(=O)C4)CC3)nc2c1C(C)C` (single isomer, unassigned) [Example 149, 4-(4-(6-isopropyl-5-(7-methyl-[1,2,4]triazolo[1,5-a]pyridin-6-yl)-4H-pyrrolo[3,2-d]thiazol-2-yl)cyclohexyl)piperazin-2-one]: the IC50 on human TLR8 was 98.5 nM; at human TLR7, 108 nM; on human TLR9 it was more than 50000 nM.

As for `COc1cc(-c2[nH]c3sc(C4CCC(NC5CC6(CNC6)C5)CC4)nc3c2C(C)C)cn2ncnc12` (single isomer, unassigned) [Example 116, N-(4-(6-isopropyl-5-(8-methoxy-[1,2,4]triazolo[1,5-a]pyridin-6-yl)-4H-pyrrolo[3,2-d]thiazol-2-yl)cyclohexyl)-2-azaspiro[3.3]heptan-6-amine], the IC50 on human TLR8 is 1.91 nM; on human TLR7, 3.11 nM; against human TLR9, 3880 nM.

Turning to `Cc1cc(-c2[nH]c3sc(C4CCC(NCC(C)(C)O)CC4)nc3c2C(C)C)cn2ncnc12` (single isomer, unassigned) [Example 141, 1-((4-(6-isopropyl-5-(8-methyl-[1,2,4]triazolo[1,5-a]pyridin-6-yl)-4H-pyrrolo[3,2-d]thiazol-2-yl)cyclohexyl)amino)-2-methylpropan-2-ol], the results for the IC50 on human TLR8, at human TLR7 and against human TLR9 were 13.5 nM, 3.03 nM and 12800 nM, respectively.

`CCC1(NC2CCC(c3nc4c(C(C)C)c(-c5cc(OC)c6ncnn6c5)[nH]c4s3)CC2)COC1` (single isomer, unassigned) [Example 94, 3-ethyl-N-(4-(6-isopropyl-5-(8-methoxy-[1,2,4]triazolo[1,5-a]pyridin-6-yl)-4H-pyrrolo[3,2-d]thiazol-2-yl)cyclohexyl)oxetan-3-amine]: the IC50 was 3.14 nM on human TLR8, 1.94 nM on human TLR7 and 40700 nM against human TLR9.

In the case of `COc1cc(-c2[nH]c3sc(C4CCC(N5CCNC(=O)C5)CC4)nc3c2C(C)C)cn2ncnc12` (single isomer, unassigned) [Example 121, 4-(4-(6-isopropyl-5-(8-methoxy-[1,2,4]triazolo[1,5-a]pyridin-6-yl)-4H-pyrrolo[3,2-d]thiazol-2-yl)cyclohexyl) piperazin-2-one], the IC50 was 57.3 nM on human TLR8, 8.51 nM on human TLR7 and more than 50000 nM against human TLR9.

With `Cc1c(-c2[nH]c3sc(C(=O)NCC(C)(C)N4CCOCC4)nc3c2C(C)C)cn2ncnc2c1C` [Example 374, 5-(7,8-dimethyl-[1,2,4]triazolo[1,5-a]pyridin-6-yl)-6-isopropyl-N-(2-methyl-2-morpholinopropyl)-4H-pyrrolo[3,2-d]thiazole-2-carboxamide], the IC50 worked out at 9.33 nM on human TLR8, 11.7 nM on human TLR7 and 41500 nM against human TLR9.

Consider `COC1CN(C2CCC(c3nc4c(C(C)C)c(-c5cn6ncnc6cc5C)[nH]c4s3)CC2)C1` (single isomer, unassigned) [Example 150, 6-isopropyl-2-(4-(3-methoxyazetidin-1-yl)cyclohexyl)-5-(7-methyl-[1,2,4]triazolo[1,5-a]pyridin-6-yl)-4H-pyrrolo[3,2-d]thiazole], for which the results for the IC50 at human TLR8, on human TLR7 and against human TLR9 were 0.39 nM, 0.57 nM and 2830 nM, respectively.

Take `CC(C)c1c(-c2ccc(C#N)c3ncccc23)[nH]c2sc(C3CCN(C4CCOCC4)CC3)nc12` [Example 38, 5-(6-isopropyl-2-(1-(tetrahydro-2H-pyran-4-yl)piperidin-4-yl)-4H-pyrrolo[3,2-d]thiazol-5-yl) quinoline-8-carbonitrile]: the results for the IC50 at human TLR8, on human TLR7 and on human TLR9 were 4.43 nM, 7.93 nM and 2280 nM, respectively.

For `Cc1c(-c2[nH]c3sc(C4CCN(CC(N)=O)CC4)nc3c2C(C)C)cn2ncnc2c1C` [Example 58, 2-(4-(5-(7,8-dimethyl-[1,2,4]triazolo[1,5-a]pyridin-6-yl)-6-isopropyl-4H-pyrrolo[3,2-d]thiazol-2-yl)piperidin-1-yl)acetamide], the figures for the IC50 at human TLR8, at human TLR7 and against human TLR9 were 1.43 nM, 3.01 nM and 32800 nM, respectively.
